Source: PMC11371747, “The role of l-leucovorin uptake and metabolism in the modulation of 5-fluorouracil efficacy and antifolate toxicity” (Frontiers in Pharmacology, 2024)
Like-named read-outs stand apart in the source and are kept apart here.

Assays:
[1] = molecular target: T1, reduced folate carrier (RFC/SLC19A1) (Homo sapiens, UniProt P41440); assay: Inhibition of RFC-mediated [3H]-l-LV influx in CEM-7A cells; format: cell-based
T1 construct: CEM-7A cells, which display 30-fold RFC overexpression relative to wild-type CCRF-CEM cells; endogenous in cells; host or cells: CEM-7A (CCRF-CEM variant, RFC+++ 30-fold)
T1 sequence (P41440 1-591): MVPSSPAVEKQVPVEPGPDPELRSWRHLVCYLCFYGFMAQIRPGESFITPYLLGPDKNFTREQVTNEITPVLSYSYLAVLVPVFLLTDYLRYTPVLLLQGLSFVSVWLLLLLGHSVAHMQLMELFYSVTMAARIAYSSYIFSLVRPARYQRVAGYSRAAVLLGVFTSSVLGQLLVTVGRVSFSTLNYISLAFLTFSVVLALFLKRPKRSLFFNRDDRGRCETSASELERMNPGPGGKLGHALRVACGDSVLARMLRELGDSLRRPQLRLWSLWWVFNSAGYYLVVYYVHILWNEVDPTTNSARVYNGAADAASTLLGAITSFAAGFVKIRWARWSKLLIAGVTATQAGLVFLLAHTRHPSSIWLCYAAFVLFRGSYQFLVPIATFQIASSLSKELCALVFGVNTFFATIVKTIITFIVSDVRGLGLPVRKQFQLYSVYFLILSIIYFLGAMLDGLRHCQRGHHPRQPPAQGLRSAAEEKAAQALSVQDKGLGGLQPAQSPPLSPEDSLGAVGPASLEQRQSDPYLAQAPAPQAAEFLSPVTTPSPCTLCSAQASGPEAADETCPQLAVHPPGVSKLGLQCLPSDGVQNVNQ
Method: (§1) In order to determine whether the LV isomers were substrates for either folate receptor α (FRα), RFC and/or PCFT, we used model systems with established overexpression of these receptors or transporters ([Westerhof et al., 1995a]; [Westerhof et al., 1995b]; [Lasry et al., 2008]; [Van der Heijden et al., 2009]).
CEM-7A cells (2 × 10^6) were suspended in 1 mL HBSS and the assay was initiated by addition of 25 μL 200 μM [^3H]-l-LV; 5,000 pmol (i.e., 5 μM final concentration). Incubations proceeded for 2 min at 37°C in the absence and presence of increasing amounts of unlabelled LV/antifolate drug. Blanks consisted of a separate incubation at 4°C or incubation with 100-fold molar excess of unlabelled l-LV. [^3H]-l-LV influx was terminated by adding 9 mL ice-cold HBSS, centrifugation and an additional wash of the cells with 10 mL ice-cold buffer. Cell pellets were then assessed for radioactivity. Relative affinities for RFC are expressed as the concentration of unlabelled drug necessary to inhibit [^3H]-l-LV uptake by 50%.

H460 cells = assay: Growth inhibition, SRB assay, H460 (NSCLC); format: cell-based, human; details: for IC50: H460, SRB, read-out: IC50, 72 h drug exposure
Method: (§2) Briefly, cells were seeded in triplicate in 96-well plates at their pre-established optimal density (CHO cells: 2,500 cells/100 μL; WiDr and HT29: 3,500 cells/100 μL; WiDr-LF/LV, LS174T: 5,000 cells/100 μL; CaCo2, CaCo2-LF/LV, H292, H28 and MSTO-211H: 6,000 cells/100 μL; H460, SW948 and SW1398: 7,000 cells/100 μL) and were allowed to attach for ∼ 24 h at 37°C in 5% CO2 and 100% humidified incubator. Thereafter, 100 μL of drug dilution without LV, or with 5 μM l-LV/5 μM d-LV/10 μM dL-LV (or any LV alone) were added. Cells were allowed to grow for 72 h at 37°C in 5% CO2 and 100% humidity. The t = 0 h control plate consisted of cells plated on the same day as the other cells, but after 24 h at 37°C in 5% CO2 and 100% humidity, only 100 μL medium was added and the cells were fixed immediately with 50% trichloroacetic acid (TCA) in milliQ water (25 μL per well) and put at 4°C for at least 1 h. Plates were washed five times with water and dried. Cells were stained with the SRB protein dye (0.4% (w/v) in 1% acetic acid. Excess dye was washed away four times with 1% acetic acid and plates were dried again. 200 μL of Tris (10 mM Tris (hydroxymethyl)-aminomethane in MQ) was added and optical density (OD) was read at 492 nm after mixing 2–3 min on a plate shaker.

H292 cells = assay: Growth inhibition, SRB assay, H292 (NSCLC); format: cell-based, human; details: for IC50: H292, SRB, read-out: IC50, 72 h drug exposure
Method: as §2

CHO/C5-PCFT cells = assay: Growth inhibition, SRB assay, CHO/C5-PCFT (PCFT-transfected); format: cell-based, Chinese hamster
Method: as §2

CHO/C5-MOCK cells = assay: Growth inhibition, SRB assay, CHO/C5-MOCK (empty vector); format: cell-based, Chinese hamster
Method: as §2

MSTO-211H cells = assay: Growth inhibition, SRB assay, MSTO-211H (MPM); format: cell-based, human; details: for IC50: SRB, read-out: IC50, 72 h drug exposure
Method: as §2

CHO/C5-hRFC cells = assay: Growth inhibition, SRB assay, CHO/C5-hRFC (human RFC transfected); format: cell-based, Chinese hamster; details: CHO/C5-hRFC
Method: as §2

folate receptor α (FRα) = molecular target: T2, folate receptor α (FRα) (Homo sapiens, UniProt P15328); assay: Intact cell competitive binding assay, displacement of [3H]-folic acid from FRα in KB cells
T2 construct: endogenous in cells; host or cells: KB cells (FRα++)
T2 sequence (P15328 25-257): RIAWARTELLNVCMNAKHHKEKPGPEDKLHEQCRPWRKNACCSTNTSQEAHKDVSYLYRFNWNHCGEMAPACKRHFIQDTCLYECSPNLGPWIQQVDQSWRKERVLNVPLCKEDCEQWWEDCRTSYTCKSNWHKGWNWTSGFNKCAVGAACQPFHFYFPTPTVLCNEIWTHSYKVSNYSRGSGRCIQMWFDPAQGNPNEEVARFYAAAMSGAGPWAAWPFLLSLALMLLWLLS
Method: as §1
For FRα we used KB cells ([Westerhof et al., 1995b]). An intact cell binding assay for competitive binding was performed as described previously ([Westerhof et al., 1995a]). Briefly, cells were washed with Hanks balanced salt solution and 6 mM glucose (HBSS, pH 7.4), suspended in 1 mL of this solution (1*10^6 for KB cells) and incubated at 4°C for 15 min with 100 pmol [^3H]-folic acid [(^3H)-FA], in the presence and absence of unlabelled folic acid or LV stereoisomers. Cells were collected by centrifugation and analysed for radioactivity. Relative affinities for FRα were defined as the inverse ratio of compound to displace 50% of radioactive folic acid from FRα. The relative affinity of folic acid was set at 1.

AA8 cells = assay: Growth inhibition, SRB assay, AA8 (parental CHO); format: cell-based, Chinese hamster; details: for IC50: AA8 parental CHO
Method: as §2

CHO/C5 cells = assay: Growth inhibition, SRB assay, CHO/C5 (RFC-deficient); format: cell-based, Chinese hamster
Method: as §2

[2] = Cricetulus griseus, antifolate alone

C#CCC(Cc1cnc2nc(N)nc(N)c2n1)c1ccc(C(=O)N[C@@H](CCC(=O)O)C(=O)O)cc1 (some centres unmarked) [PLX, pralatrexate]
50% inhibition of [3H]-l-LV influx (RFC), fold lower concentration than l-LV [1]: 2.5 fold
IC50 (H460 cells; antifolate + 5 µM l-LV): 1.45 µM
Relative protection by 5 µM l-LV (H460 cells; H460, ratio IC50 antifolate + LV / IC50 antifolate): 502 ± 21
IC50 (H460 cells; Homo sapiens, NCI-H460, 72 h, antifolate alone): 0.0028 ± 0.0001 µM
IC50 (H292 cells; antifolate + 5 µM l-LV): 19.1 µM
Relative protection by 5 µM l-LV (H292 cells; H292, ratio IC50 antifolate + LV / IC50 antifolate): 4,778 ± 1795
IC50 (H292 cells; Homo sapiens, NCI-H292, 72 h, antifolate alone): 0.0037 ± 0.0003 µM
IC50 (CHO/C5-PCFT cells; [2]): 6.8 µM
IC50 (CHO/C5-PCFT cells; antifolate + 5 µM l-LV): 87.5 µM
IC50 (CHO/C5-MOCK cells; [2]): 13.1 µM
IC50 (CHO/C5-MOCK cells; antifolate + 5 µM l-LV): > 100 µM
IC50 (MSTO-211H cells; Homo sapiens, 72 h, antifolate alone): 0.0024 ± 0.0001 µM
IC50 (MSTO-211H cells; antifolate + 5 µM l-LV): 3.34 µM
Relative protection by 5 µM l-LV (MSTO-211H cells; ratio IC50 antifolate + LV / IC50 antifolate): 1,601 ± 275
IC50 (CHO/C5-hRFC cells; antifolate + 5 µM l-LV): 0.9 µM
IC50 (CHO/C5-hRFC cells; [2]): 0.0038 µM
Molar excess over folic acid required for displacement of [3H]-FA binding from FRα (folate receptor α (FRα)): > 100 fold
Relative affinity for FRα (folate receptor α (FRα); 100 pmol [3H]-FA, inverse ratio of amount of drug displacing 50% of [3H]-FA, FA set to 1): 0.0035
Protection by l-LV, increase of the IC50 value (AA8 cells; AA8 cells, 5 µM l-LV): 965 fold
IC50 (AA8 cells; antifolate + 5 µM l-LV): 3.67 µM
IC50 (AA8 cells; [2]): 0.0038 µM
IC50 (CHO/C5 cells; [2]): 9.5 µM
IC50 (CHO/C5 cells; antifolate + 5 µM l-LV): 48.3 µM
